This note sets out measurements from US9140689B2, “Methods of determining susceptibility of tumors to tyrosine kinase inhibitors” (Translational Genomics Research Institute, priority 2010, dated 2015).

Holding throughout (assay type): cell-based, murine
Test [1] relates to BaF3/FGFR2b wildtype cells. Put plainly: BaF3/FGFR2b cell viability (ViaLight assay), wildtype. Conditions: Mus musculus, BaF3, 72 h, read-out: IC50 value in BaF3/FGFR2b wildtype. The protocol: (§1) The BaF3 cell line is an IL-3 dependent murine pro-B cell line that is commonly employed to model TKI resistant mutations. BaF3 cells are made dependent on a specific oncogenic tyrosine kinase, and are cultured in the presence of a kinase inhibitor against that specific kinase, and resistant colonies can be screened for drug resistant mutations. This approach effectively reproduced the pattern and relative abundance of Bcr-Abl mutations seen clinically in imatinib-resistant patients (Von Bubnoff, N. et al, Blood. 2005 105:1652-1659)
(§2) BaF3/FGFR2b wildtype and N550K mutation variant cells were plated at a density of 10,000 cells/well in a 96-well plate. […] (Selleck Chemicals) or PD173074 (Calbiochem) was added in half-log dilutions in the absence of IL3 and in the presence of 1 nM FGF10 and 5 μg/mL heparin. After 72 hours, cell viability was measured using the ViaLight assay from Lonza (Visp, CH). The IC50 values shown in FIG. 1 were normalized to DMSO control and data were analyzed with Prism software. […].

For test [2], the system named is BaF3/FGFR2b N550K mutation variant cells. Put plainly: BaF3/FGFR2b cell viability (ViaLight assay), N550K variant. As for the experimental part:
as §1, §2

For test [3], the system named is BaF3/FGFR2b E719G mutation variant cells. Briefly: BaF3/FGFR2b TKI resistance test, E719G variant alone. The text has this: Genomic DNA was isolated from the BaF3.FGFR2b colonies selected in the […]-resistance screen. Exons encoding the intracellular domain of FGFR2b were amplified and sequencing performed in two directions. Mutations in the intracellular domain of FGFR2b were identified in 26 of the 63 (41%) […] resistant BaF3.FGFR2b clones. Among the 26 FGFR2b mutations, eleven different mutation variants were detected (Table 1). The eleven different mutation variants are: M536I, M538I, I548V, N550H, N550K, N550S, V565I, E566G, L618M, E719G, and Y770IfsX14. The most commonly mutated codon was N550, with mutations occurring in 19 of the 26 (73%) resistant clones. In addition, E719G mutation variant was identified in a clone with a N550H mutation; […]. Similar tests were performed with the other 10 FGFR2b mutation variants. The majority of the mutations identified in this drug resistance screen result in activation of FGFR2. […]. The FGFR2 mutations resistance to another TKI PD173074 were also tested. […] The receptor activation of FGFR2 mutants and wildtype were measured and compared in the presence of FGF ligand. […]

Take `CCN(CC)CCCCNc1ncc2cc(-c3cc(OC)cc(OC)c3)c(NC(=O)NC(C)(C)C)nc2n1` [PD173074]: the IC50 in test [1] was 4.5 nM; in test [2] (Mus musculus, BaF3, 72 h, read-out: IC50 value in N550K resistance cells) it was 776 nM. Moreover, the “fold difference of IC50, N550K versus wildtype” value in test [2] (BaF3/FGFR2b N550K vs wildtype) is on record as “over 170 fold”. Also, the “resistance conferred by E719G mutation alone” value in test [3] is on record as “did not induce resistance”.
